Laboratory results reported in patent publication US9499484B2, “Indole, indoline derivatives, compositions comprising them and uses thereof” (priority 2012, dated 2016).
Counter-ions that a name gives are not always drawn.

Assays:
[1] = tested on: primary neurones in culture; conditions: Chyan et al., J. Biol. Chem. 1999; cited from earlier work
[2] = tested on: ChE (AChE, BuChE) in plasma, muscle, spleen, brain; conditions: for ChE inhibition in plasma, muscle, and spleen: after ip and or oral administration in mice
Procedure: E. Acetylcholinesterase (AChE) and Butylcholinesterase (BuChE) Inhibition Ex Vivo
Compounds of the invention or saline were administrated by intraperitoneal (ip) injection or gavage to groups of 6-7 male ICR or Balb C mice (5-6 weeks of age). The mice were sacrificed 15, 30, 60 or 120 min after drug administration and the brain (minus cerebellum), spleen, and muscle were rapidly removed, weighed and put on ice. Blood was also collected in heparinised tubes, centrifuged at 14000 rpm at room temperature for 4 mM to provide plasma. Phosphate buffer pH 7 was added to each tissue to produce concentrations of 1 mg/mL for brain and spleen and 8 mg/mL for muscle. The tissues were homogenised in cold phosphate buffer pH 7 containing 0.1% Triton and centrifuged at 14000 rpm. Aliquots of plasma and the supernatant of all tissues were incubated with AcTh or BuTh and DTNB in phosphate buffer pH 7 and the rate of development of the yellow colour was measured as described above. Enzyme activity was measured for each time and drug concentration and percent inhibition of the AChE or BuChE activity was calculated by comparison with that of control mice injected with saline. Results are represented as p moles acetylthiocholine or butythiocholine hydrolysed/min/gm tissue.

[3] = Radical scavenging, Sin1; assay type: biochemical; conditions: mean ± SD, three independent experiments
[4] = tested on: NO, BV2 mouse microglial cells; assay: NO reduction in LPS-stimulated BV2 microglia; assay type: cell-based; conditions: for Reduction in NO levels by at >20%, BV2 Microglia range: concentration range, None = no reduction up till 100 nM
Procedure: The BV2 mouse microglial cells were created by infecting primary mouse microglia with v-raf/v-myc oncogen-carrying retrovirus and donated by Dr. Sigal Fleisher—Berkovich (Ben-Gurion University of the Negev). The cells were cultured in RPMI 1640 containing 0.4 mM L-Glutamine, 10% FCS, 100 units/ml penicillin, 100 μg/ml streptomycin and maintained in a humidified incubator at 37° C. with 5% CO2. For measurement of the effect of compounds on the release of NO the cells were seeded in a density of 80,000 cells/ml and confluence of about 60%, and incubated with test compounds (in the absence of FCS) for […] All the medium was removed and fresh medium containing FCS and LPS (10 μg/ml) added and the cells maintained at 37° C. for 24 h. The release of NO into the medium was determined by measurement of nitrite levels using Griess reagent reaction. For measurement of protein levels of cytokines cells were seeded in a density of 80,000 and incubated with test compounds (in the absence of FCS) and then with LPS as described above. The medium was centrifuged and supernatants collected after 6 h for TNF-α (Biolegend) and after 20 h for IL-6 (Biolegend).

[5] = tested on: TNF-α, RAW 264.7 cells; assay: TNF-α reduction in LPS-stimulated RAW 264.7 macrophages; assay type: cell-based, mouse; conditions: for Emax: Mus musculus, RAW264.7, 6 h, read-out: Reduction in TNF-α levels, RAW Macrophages % peak reduction
[6] = tested on: TNF-α, BV2 mouse microglial cells; assay: TNF-α reduction in LPS-stimulated BV2 microglia; assay type: cell-based; conditions: for Reduction in TNF-α levels, BV2 Microglia range: concentration range, None = no reduction up till 100 nM
[7] = tested on: NO, RAW 264.7 cells; assay: NO reduction in LPS-stimulated RAW 264.7 macrophages; assay type: cell-based, mouse; conditions: Mus musculus, RAW264.7, 24 h, read-out: Reduction in NO levels, RAW Macrophages % peak reduction
[8] = Radical scavenging, glucose oxidase/luminol luminescence; assay type: biochemical; conditions: concentration reducing luminescence/radical by 50%; mean ± SD, three independent experiments
Method in brief: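 Glucose oxidase, luminol, sodium selenite and Co2+ in HBSS generate H2O2-driven oxidant luminescence. Compounds were added at several concentrations. The value is the concentration reducing luminescence by 50%.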

[9] = Fall in body temperature in rats; assay type: in vivo, rat; conditions: ip injection of two doses
Procedure: F. Temperature Measurements in Rats
Monitoring body temperature at different times after drug administration enables one to assess in vivo both the extent of drug effect and its duration in the same group of rats. Test compounds or saline were administrated by ip injection or by gavage to female Wistar rats aged 3-4 months. Body temperature was measured rectally by means of a thermocouple probe, before and every 30 min after drug administration until this returned to pre-injection values. The change in body temperature induced by the drug was computed for each dose at each time point in comparison with the temperature prior to drug injection.

[10] = molecular target: T1, BuChE (UniProt P81908); assay type: biochemical, human or equine serum; conditions: read-out: IC50 BuChE 120 min; Table 3; 120 min incubation
T1 construct: 120 min incubation; BuChE IC50
Method in brief: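 Enzyme incubated at 37° C with 6-10 compound concentrations, sampled at 15, 30, 60 and 120 min; residual activity read kinetically on a microplate reader. Percent inhibition relative to no-drug enzyme; BuChE run likewise with 0.075M butylthiocholine iodide as substrate.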

[11] = tested on: conversion of MCI to AD; conditions: chronic treatment; cited from earlier work
[12] = tested on: cytokine levels in spleen and brain; assay: Anti-inflammatory activity in LPS-injected mice, cytokine protein levels; assay type: in vivo, mouse; conditions: 8 h after ip LPS 10 mg/kg, two doses
Procedure: G. Evaluation of Anti-Inflammatory Activity in Mice
For measurement of cytokine protein levels, mice were treated with saline or LPS as described above and sacrificed 4 h or 8 h after drug administration, the spleen and rapidly brain removed. The brain was separated into fore, mid and hind sections (minus cerebellum) and frozen in liquid nitrogen and stored at −80° C. until use. […] The supernatant was rapidly frozen in liquid nitrogen and stored until use at −80° C. Cytokines were detected by using Elisa kits (Biolegend) and protein determination performed with Bradford reagent (Bio-RAD, 500-0006).

[13] = tested on: DNBS-induced colon inflammation; assay: DNBS-induced colitis in rats (model of Crohn's disease); assay type: in vivo, rat; conditions: rectal 1 mg/kg (2.5 μmoles/kg) prior to and after DNBS
Procedure: H. Measurement of Effect of Compounds of the Invention in a Model of Crohn's Disease in Rats
Inflammation in the colon was induced in male rats of the Sabra strain (250-300 g) by intra-colonic administration of 1 mL of dinitrobenzensulfonic acid (DNBS) (35 mg/mL in ethanol 25% v/v) under isoflurane anaesthesia. The novel drugs (827B or 680D) or saline was given rectally 1 h prior to DNBS at a dose of 1 mg/kg (2.5 μmoles/kg), and then twice daily at the same dose 12, 24, 36, 48, 60 and 72 h later. A group of control rats received saline rectally instead of DNBS and were pre-treated with saline instead of drug. The rats were anaesthetized by ip injection of a mixture of xylazine 3 mg, ketamine 85 mg, 1 mL/kg. The colon was exposed through a longitudinal abdominal incision. The area of ulceration was estimated. Segments of 10 cm of the colon were removed, cut open and rinsed with ice-cold saline. After cleaning with cold saline (0.9%) the wet weight of the colon was measured. Pieces of colon were analysed for activity of myeloperoxidase (MPO), a marker of neutrophil granulocyte infiltration into the inflamed colon tissue. One unit of MPO activity was defined as the amount of enzyme present that produced a change in absorbance of […] at 25° C. Results were quantified as U/g protein.

SMILES: O=C(O)CCc1c[nH]c2ccccc12 [IPA, 3-indole-propionic acid]
- protection of primary neurones against oxidative damage induced by beta amyloid [1]: protects primary neurones in culture against oxidative damage induced by beta amyloid

SMILES: CCN(C)C(=O)Oc1cccc2c1CCN2 [AN-854, Indolin-4-yl ethyl(methyl)carbamate hydrochloride]
- inhibited ChE in the mouse brain ([2]; 50 μmoles/kg): 30%
- ChE inhibition in plasma, muscle, and spleen [2]: inhibited ChE
- IC50 [3]: 570 ± 10 nM
- Reduction in NO levels by at >20%, BV2 Microglia range [4]: None
- Emax [5]: 41.1 ± 3.8%
- Reduction in TNF-α levels, BV2 Microglia % peak reduction [6]: 8.4 ± 1.7%
- Reduction in TNF-α levels, BV2 Microglia range [6]: 100 nM
- Emax [7]: 45.2 ± 1.4%
- IC50 [8]: 1380 ± 100 nM
- fall in body temperature in rats (FIG. 4) [9]: fall in body temperature
- IC50 [10]: 700 nM

SMILES: COc1cc2c(cc1OC)C(=O)C(CC1CCN(Cc3ccccc3)CC1)C2 (stereo not drawn) [donepezil]
- proportion of MCI patients converting to AD [11]: did not reduce the proportion converting to AD

SMILES: CCN(C)C(=O)Oc1ccc2c(c1)NCC2CCC(=O)OC.CS(=O)(=O)O (stereo not drawn) [AN-680D, Methyl 3-(6-((ethyl(methyl)carbamoyl)oxy)indolin-3-yl)propanoate methanesulfonate]
- reduction in cytokine levels in cerebral cortex (FIG. 6B) [12]: reduction
- reduction in cytokine levels in spleen (FIG. 6A) [12]: reduction
- inhibition of ChE in mouse brain ([2]; 100 μmoles/kg): no significant inhibition
- Reduction in NO levels, BV2 Microglia % peak reduction [4]: 37.1 ± 5.3%
- Reduction in NO levels by at >20%, BV2 Microglia range [4]: 10^−3-100 nM
- reduced MPO activity [13]: 80%
- reduced colon weight [13]: 30%
- reduced the area of colonic ulceration [13]: 95%
- Emax [7]: 47.8 ± 1.8%

SMILES: CCN(C)C(=O)Oc1cccc2c1C(CCN)CN2 (stereo not drawn) [AN-890, 3-(2-Aminoethyl)indolin-4-yl ethyl(methyl)carbamate dihydrochloride]
- ChE inhibition in plasma, muscle, and spleen [2]: inhibited ChE
- ChE inhibition in skeletal muscle ([2]; mice, 1 mg/kg): little or no effect
- ChE inhibition in plasma and spleen ([2]; mice, 1 mg/kg, ip and oral, 30 to 120 min): inhibited ChE in plasma and spleen equally well after ip and oral administration
- IC50 [3]: 2130 ± 180 nM
- Reduction in NO levels by at >20%, BV2 Microglia range [4]: None
- inhibition of the level of TNF-α induced in RAW cells by LPS (FIG. 3) [5]: inhibition
- Emax [5]: 36.6 ± 4.1%
- Reduction in TNF-α levels, BV2 Microglia range [6]: None
- Emax [7]: 54.6 ± 2.3%
- IC50 [8]: 70 ± 10 nM
- IC50 [10]: 200 nM
